A word on the IC50: it is the concentration at which inhibition is half-maximal.

The record followed here is patent US20240270739A1, “Heteroaryl Fluoroalkenes As DGK Inhibitors” (Incyte Corporation, priority 2023, published 2024).

Bounds are passed on as bounds.

Assay [1] has as its target T1, DGKα (Homo sapiens, UniProt P23743).
T1 construct: His; purchased Signal Chem D21-10BH
The assay can be described thus: In vitro DGKα inhibition assay (ADP-Glo). Type of assay: biochemical. The following applies: His-tagged human recombinant enzyme, 0.1 nM DGKα, 50 μM ATP, 20 μM DLG, 90 minute incubation. The protocol:
(§1) The DGKα and DGKζ biochemical reactions were performed using His-tagged human recombinant enzymes (Signal Chem, DGKα, #D21-10BH; DGKζ, #D30-10H)) and DLG (Dilauroyl-sn-glycerol) lipid substrate (Signal Chem, #D430-59). ADP-Glo assay was performed using ADP-Glo™ kinase Assay kit (Promega, #V9104). The reactions were carried out in assay buffer containing 40 mM Tris, pH 7.5, 0.1% CHAPS, 0.1% Prionex, 40 mM NaCl, 5 mM MgCl2, 1 mM CaCl2, and 1 mM DTT. DGKα reactions contained 0.1 nM DGKα, 50 μM ATP, and 20 μM DLG. And DGKζ reactions contained 0.4 nM DGKζ, 30 μM ATP, and 20 μM DLG.
(§2) For compound inhibition studies, 40 nL test compound in DMSO was added to wells of white polystyrene plates in 384-well (Greiner, #784075) or 1536-well format (Greiner, #782075). Compounds were added with top concentration of 2 mM with 11 point, 3-fold dilution series. Enzyme solution (contains 2×DGK enzyme concentration in 1× assay buffer) was added to the plate in 2 μL/well volume, followed by 2 μL/well of substrate solution (contains 2× concentration of ATP and DLG substrate in 1× assay buffer). Plates were then centrifuged for 1 min at 1200 RPM and sealed or lidded. For 4 μL reaction volume, test compounds were therefore diluted 100× to final top concentration of […]. After 90 minute incubation, reactions were quenched by addition of 2 μL/well Promega ADP-Glo Reagent, followed by centrifugation and lidding. After 60 min incubation, 2 μL/well Promega Kinase Detection Reagent was added, plates centrifuged, and incubated for 30 min. Plates were then read using Luminescence method on BMG PHERAstar FSX plate reader. Percent inhibition was calculated and IC50s were determined using 4-parameter fit in Genedata Screener. Labcyte Echo acoustic dispenser was used for compound addition, and Formulatrix Tempest liquid handler was used for all reagent dispenses. The compounds of the disclosure were tested in one or more of the assays described above, and the resulting data are shown in Table A.
Background: ADP-Glo first removes unused ATP, then detects ADP through luciferase.

The target in assay [2] is T2, DGKζ (Homo sapiens, UniProt Q13574).
T2 construct: His; purchased Signal Chem D30-10H
T2 sequence (Q13574 whole entry): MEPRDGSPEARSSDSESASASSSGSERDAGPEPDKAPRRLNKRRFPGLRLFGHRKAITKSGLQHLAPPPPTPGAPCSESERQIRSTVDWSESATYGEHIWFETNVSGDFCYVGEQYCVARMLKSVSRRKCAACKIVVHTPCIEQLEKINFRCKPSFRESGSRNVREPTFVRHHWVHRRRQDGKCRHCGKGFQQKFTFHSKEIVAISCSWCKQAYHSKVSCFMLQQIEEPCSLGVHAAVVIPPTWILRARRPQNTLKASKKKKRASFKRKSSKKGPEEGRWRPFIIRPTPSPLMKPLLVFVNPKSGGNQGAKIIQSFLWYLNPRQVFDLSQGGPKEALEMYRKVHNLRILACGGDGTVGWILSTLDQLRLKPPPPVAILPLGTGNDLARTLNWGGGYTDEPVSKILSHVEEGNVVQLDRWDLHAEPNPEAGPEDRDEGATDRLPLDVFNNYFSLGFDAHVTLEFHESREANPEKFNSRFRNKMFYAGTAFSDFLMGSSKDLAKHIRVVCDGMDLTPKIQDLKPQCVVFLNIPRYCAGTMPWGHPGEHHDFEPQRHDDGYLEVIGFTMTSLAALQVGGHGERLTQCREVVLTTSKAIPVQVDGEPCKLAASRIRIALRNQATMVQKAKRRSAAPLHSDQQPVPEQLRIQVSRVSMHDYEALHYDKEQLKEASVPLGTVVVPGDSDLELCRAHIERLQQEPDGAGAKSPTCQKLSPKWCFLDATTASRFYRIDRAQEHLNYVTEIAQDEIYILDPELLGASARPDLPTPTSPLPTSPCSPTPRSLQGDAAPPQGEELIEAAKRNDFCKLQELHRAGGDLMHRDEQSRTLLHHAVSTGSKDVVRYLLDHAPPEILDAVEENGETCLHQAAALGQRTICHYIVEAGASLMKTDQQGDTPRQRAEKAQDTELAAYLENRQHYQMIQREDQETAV
The assay is described as follows: In vitro DGKζ inhibition assay (ADP-Glo). As to conditions: His-tagged human recombinant enzyme, 0.4 nM DGKζ, 30 μM ATP, 20 μM DLG, 90 minute incubation. Type of assay: biochemical. The protocol: as §1, §2

T1 sequence (P23743 whole entry): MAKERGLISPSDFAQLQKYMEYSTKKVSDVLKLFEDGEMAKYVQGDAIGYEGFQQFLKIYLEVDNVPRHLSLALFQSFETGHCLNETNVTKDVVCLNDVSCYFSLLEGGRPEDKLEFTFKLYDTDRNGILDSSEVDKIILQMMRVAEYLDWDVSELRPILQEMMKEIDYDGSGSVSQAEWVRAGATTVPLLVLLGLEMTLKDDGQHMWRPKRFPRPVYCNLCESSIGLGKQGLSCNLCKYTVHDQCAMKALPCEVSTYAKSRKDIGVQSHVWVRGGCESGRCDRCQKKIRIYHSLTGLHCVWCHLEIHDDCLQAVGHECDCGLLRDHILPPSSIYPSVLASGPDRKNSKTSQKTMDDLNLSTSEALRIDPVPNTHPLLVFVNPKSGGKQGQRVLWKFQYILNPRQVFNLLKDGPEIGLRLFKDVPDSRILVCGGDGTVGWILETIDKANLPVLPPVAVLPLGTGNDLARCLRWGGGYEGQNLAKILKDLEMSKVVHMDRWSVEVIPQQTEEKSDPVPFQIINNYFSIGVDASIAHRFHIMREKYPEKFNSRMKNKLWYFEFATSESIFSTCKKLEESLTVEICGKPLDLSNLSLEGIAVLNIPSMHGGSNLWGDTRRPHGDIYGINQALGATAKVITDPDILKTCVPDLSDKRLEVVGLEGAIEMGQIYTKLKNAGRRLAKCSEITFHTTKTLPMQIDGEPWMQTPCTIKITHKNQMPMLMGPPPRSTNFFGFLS

Turning to `F/C(=C\c1ccc(Oc2cccc(F)c2F)c(C(F)(F)F)c1N1CCCC2(CCNCC2)C1)c1csc(-c2cnsc2)n1` [Example 8, (Z)-4-(4-(2-(4-(2,3-Difluorophenoxy)-2-(2,9-diazaspiro[5.5]undecan-2-yl)-3-(trifluoromethyl)phenyl)-1-fluorovinyl)thiazol-2-yl)isothiazole], the concentration for half-maximal inhibition (IC50) in assay [1] was no more than 20 nM; in assay [2], 20 to 200 nM.

On to `CCN1CCC2(CCCN(c3c(/C=C(\F)c4csc(-c5ccnnc5)n4)ccc(Oc4ccccc4)c3C(F)(F)F)C2)CC1` [Example 17, (Z)-4-(2-(2-(9-Ethyl-2,9-diazaspiro[5.5]undecan-2-yl)-4-phenoxy-3-(trifluoromethyl)phenyl)-1-fluorovinyl)-2-(pyridazin-4-yl)thiazole], for which the half-inhibitory concentration (IC50) in assay [1] and in assay [2] was no more than 20 nM each time.

Consider `OCCN1CCC2(CCCN(c3c(/C=C(\F)c4csc(-c5ccnnc5)n4)ccc(Oc4ccccn4)c3C(F)(F)F)C2)CC1` [Example 13, (Z)-2-(2-(6-(2-Fluoro-2-(2-(pyridazin-4-yl)thiazol-4-yl)vinyl)-3-(pyridin-2-yloxy)-2-(trifluoromethyl)phenyl)-2,9-diazaspiro[5.5]undecan-9-yl)ethan-1-ol], for which the IC50 in assay [1] and in assay [2] was no more than 20 nM each time.

For `NC[C@@H]1CCCN(c2c(/C=C(\F)c3ccn(-c4ccnnc4)n3)ccc(Oc3ccccc3F)c2C(F)(F)F)C1` [Example 2, (S,Z)-(1-(6-(2-Fluoro-2-(1-(pyridazin-4-yl)-1H-pyrazol-3-yl)vinyl)-3-(2-fluorophenoxy)-2-(trifluoromethyl)phenyl)piperidin-3-yl)methanamine], the IC50 in assay [1] and in assay [2] was no more than 20 nM throughout.

As to `F/C(=C\c1ccc(OC2CCC2)c(C(F)(F)F)c1N1CCOC2(CCNCC2)C1)c1csc(-c2ccnnc2)n1` [Example 7, (Z)-4-(3-Cyclobutoxy-6-(2-fluoro-2-(2-(pyridazin-4-yl)thiazol-4-yl)vinyl)-2-(trifluoromethyl)phenyl)-1-oxa-4,9-diazaspiro[5.5]undecane], the values for the concentration for half-maximal inhibition (IC50) in assay [1] and in assay [2] were no more than 20 nM and 20 to 200 nM, respectively.

As to `COc1cc(F)ccc1Oc1ccc(/C=C(\F)c2csc(-c3ccnnc3)n2)c(N2CCC[C@@H](CN)C2)c1Cl` [Example 3, (S,Z)-(1-(2-Chloro-6-(2-fluoro-2-(2-(pyridazin-4-yl)thiazol-4-yl)vinyl)-3-(4-fluoro-2-methoxyphenoxy)phenyl)piperidin-3-yl)methanamine], the concentration for half-maximal inhibition (IC50) in assay [1] and in assay [2] was no more than 20 nM each time.

Regarding `F/C(=C\c1ccc(Oc2ccccn2)c(C(F)(F)F)c1N1CCCC2(CCN(CC3CC3)CC2)C1)c1ccn(-c2ccnnc2)n1` [Example 16, (Z)-9-(Cyclopropylmethyl)-2-(6-(2-fluoro-2-(1-(pyridazin-4-yl)-1H-pyrazol-3-yl)vinyl)-3-(pyridin-2-yloxy)-2-(trifluoromethyl)phenyl)-2,9-diazaspiro[5.5]undecane], the half-maximal inhibitory concentration (IC50) in assay [1] and in assay [2] was no more than 20 nM each time.

In the case of `CCN1CC2(CCCN(c3c(/C=C(\F)c4ccn(-c5ccnnc5)n4)ccc(Oc4cccc(F)c4F)c3C(F)(F)F)C2)C1` [Example 19, (Z)-6-(3-(2,3-Difluorophenoxy)-6-(2-fluoro-2-(1-(pyridazin-4-yl)-1H-pyrazol-3-yl)vinyl)-2-(trifluoromethyl)phenyl)-2-ethyl-2,6-diazaspiro[3.5]nonane], the IC50 in assay [1] and in assay [2] was no more than 20 nM in each case.
